Experimental data reported in ChEMBL document CHEMBL1201862, “PubChem BioAssay data set” (2004).
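48-hour exposure; five concentrations; linearly interpolated endpoints. GI50 marks 50% less growth.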 Active and inactive are the calls of the source. Rule as the data show it: active = GI50 up to about 1.1 µM and inactive = higher.

Columns and labels:
Assay in all cases: inhibition of tumour cell growth, NCI panel, 48 h
SK-MEL-28 = test system: SK-MEL-28
U-251 = test system: U-251
OVCAR-4 = test system: OVCAR-4
UO-31 = test system: UO-31
TK-10 = test system: TK-10
UACC-62 = test system: UACC-62
SK-MEL-5 = test system: SK-MEL-5
OVCAR-8 = test system: OVCAR-8
SK-OV-3 = test system: SK-OV-3
EKVX = test system: EKVX
786-0 = test system: 786-0
LOX IMVI = test system: LOX IMVI
K562 = test system: K562
UACC-257 = test system: UACC-257
SNB-19 = test system: SNB-19
IGROV-1 = test system: IGROV-1
RXF 393 = test system: RXF 393
CCRF-CEM = test system: CCRF-CEM

Measured: GI50

CCCCCCCCCC1CC(=O)OC2=C1C(=O)CCC2 (stereo unspecified)
inactive: SK-MEL-28 > 100 µM | U-251 > 100 µM | OVCAR-4 > 100 µM | UO-31 > 100 µM | TK-10 > 100 µM | UACC-62 > 100 µM | SK-MEL-5 > 100 µM | OVCAR-8 > 100 µM | SK-OV-3 > 100 µM | EKVX > 100 µM | 786-0 > 100 µM | LOX IMVI > 100 µM | K562 > 100 µM | UACC-257 > 100 µM | SNB-19 > 100 µM | IGROV-1 > 100 µM | RXF 393 > 100 µM | CCRF-CEM > 100 µM

CC(C)OP(=O)(OC(C)C)/C(N)=N/Nc1ccc([N+](=O)[O-])cc1
inactive: SK-MEL-28 > 100 µM | U-251 > 100 µM | OVCAR-4 > 100 µM | UO-31 61.8 µM | TK-10 27 µM | UACC-62 83 µM | SK-MEL-5 60.1 µM | OVCAR-8 > 100 µM | EKVX 25.4 µM | 786-0 > 100 µM | LOX IMVI > 100 µM | K562 77.6 µM | UACC-257 25.1 µM | SNB-19 77.4 µM | CCRF-CEM 98.2 µM

O=[N+]([O-])c1cccc(C(O)/C(=N/Nc2ccccc2)C2Nc3ccc([N+](=O)[O-])cc3N=C2O)c1 (stereo unspecified)
inactive: SK-MEL-28 > 100 µM | U-251 88.1 µM | OVCAR-4 78.5 µM | UO-31 27.5 µM | TK-10 > 100 µM | UACC-62 17.4 µM | SK-MEL-5 16.9 µM | OVCAR-8 > 100 µM | SK-OV-3 > 100 µM | EKVX > 100 µM | 786-0 > 100 µM | LOX IMVI > 100 µM | K562 30.5 µM | UACC-257 > 100 µM | SNB-19 > 100 µM | IGROV-1 38.7 µM | RXF 393 > 100 µM | CCRF-CEM 81.8 µM

O=C(c1ccccc1)c1ccc2cccc(O)c2n1
inactive: SK-MEL-28 29.3 µM | U-251 18.5 µM | OVCAR-4 67.8 µM | UO-31 34.4 µM | TK-10 94.8 µM | UACC-62 33.1 µM | SK-MEL-5 22.9 µM | OVCAR-8 23.6 µM | EKVX 24.4 µM | 786-0 15.8 µM | LOX IMVI 11.9 µM | K562 9.23 µM | SNB-19 31.1 µM | IGROV-1 93.1 µM | RXF 393 16.4 µM | CCRF-CEM 1.19 µM

COc1ccc(-c2cn3ccsc3n2)cc1
inactive: SK-MEL-28 > 100 µM | U-251 75.2 µM | OVCAR-4 > 100 µM | UO-31 > 100 µM | TK-10 > 100 µM | UACC-62 > 100 µM | SK-MEL-5 > 100 µM | OVCAR-8 > 100 µM | SK-OV-3 > 100 µM | EKVX > 100 µM | 786-0 35.6 µM | LOX IMVI 36.2 µM | K562 55.2 µM | UACC-257 > 100 µM | SNB-19 > 100 µM | IGROV-1 > 100 µM | CCRF-CEM 64 µM

O=[N+]([O-])c1ccc(C2=Nc3ccccc3[S+]([O-])C(c3ccccc3)C2)cc1 (stereo unspecified)
inactive: SK-MEL-28 20 µM | OVCAR-4 20.1 µM | UO-31 16.7 µM | TK-10 27 µM | UACC-62 13.6 µM | SK-MEL-5 > 10 µM | OVCAR-8 32.4 µM | SK-OV-3 31.9 µM | EKVX 22.4 µM | 786-0 17.5 µM | LOX IMVI 15.2 µM | K562 10.9 µM | UACC-257 22.1 µM | SNB-19 20 µM | IGROV-1 15.3 µM | RXF 393 14.9 µM | CCRF-CEM 15.1 µM

CNc1ccc([N+](=O)[O-])c2c(NCCCN(C)C)ccnc12
inactive: SK-MEL-28 > 100 µM | U-251 > 100 µM | OVCAR-4 > 100 µM | UO-31 > 100 µM | TK-10 > 100 µM | OVCAR-8 > 100 µM | SK-OV-3 > 100 µM | EKVX > 100 µM | 786-0 > 100 µM | LOX IMVI > 100 µM | K562 > 100 µM | UACC-257 > 100 µM | SNB-19 > 100 µM | IGROV-1 > 100 µM | CCRF-CEM > 100 µM

COC(=O)CCC(=O)C(C#N)c1ccc(Cl)cc1Cl (stereo unspecified)
inactive: SK-MEL-28 > 100 µM | U-251 > 100 µM | UO-31 > 100 µM | TK-10 > 100 µM | UACC-62 > 100 µM | SK-OV-3 > 100 µM | EKVX > 100 µM | 786-0 > 100 µM | LOX IMVI > 100 µM | K562 > 100 µM | UACC-257 > 100 µM | SNB-19 > 100 µM | IGROV-1 > 100 µM | CCRF-CEM > 100 µM

CN(C)/C=N\c1nc(=O)n(C2CCC(CO)O2)cc1F (stereo unspecified)
inactive: SK-MEL-28 > 100 µM | U-251 > 100 µM | OVCAR-4 > 100 µM | UO-31 > 100 µM | TK-10 > 100 µM | SK-MEL-5 > 100 µM | OVCAR-8 > 100 µM | SK-OV-3 > 100 µM | EKVX > 100 µM | 786-0 > 100 µM | LOX IMVI > 100 µM | K562 > 100 µM | UACC-257 > 100 µM | SNB-19 > 100 µM | RXF 393 > 100 µM | CCRF-CEM > 100 µM
